Results from patent publication US5427766A, “Radiolabeled steroids for use in radiochemical-guided surgery” (priority 1993, dated 1995).

Legend:
[1] = In vivo localization (biodistribution) in athymic female nude mice bearing intraperitoneal MCF-7 tumors; design: species or system athymic female NCR-Nu Mice; settings: mouse, in vivo, ip; for tissue uptake: 10-12 hours
Procedure: (§1) In vivo localization of 11β-ethyl-17α-(Z)-[^125 I](iodovinyl)estra-3,17β-diol (5) and a control compound 16α-[^125 I]iodovinyl-3,17β-estradiol (commercially available from DuPont New England Nuclear, MA) was determined in athymic female NCR-Nu Mice (purchased from Simonsen Laboratories, Gilroy, Calif.) bearing subcutaneous MCF-7(ER+) breast tumor xenografts. Prior to injection of the compounds, the mice were each implanted with fragments of MCF-7 breast tumor (approximately 2 cubic millimeters) in the subcutis of the left flank. At approximately the same time, a 1.7 mg estradiol pellet (Innovative Research of America, Toledo, Ohio) was implanted in the scapular region. The tumors were allowed to grow until they reached between 50 and 200 mg by visual inspection (approximately four to five weeks) prior to injection of the test compounds. One day prior to injection of the test compounds, the estradiol pellet was removed.
(§2) The mice were each injected via tail vein with between 3 (1.1×10^5 Bq) and 6 μCi ([…]) ^125 I in approximately 50 μL of phosphate buffered saline. The mice were sacrificed at various time intervals. After exsanguination, the selected organ/tissue were excised, weighed and radioactivity measured in a gamma counter. The counts per minute (cpm) of 125I in each tissue was determined and expressed as cpm per gram of tissue per injected dose multiplied by 100 (percent injected dose/gram).
The procedure of Example 3 was followed except each mouse was inoculated intraperitoneally with MCF-7 breast carcinoma cell line (7.5×10^6 cell/50 μL) rather than implanted subcutaneously with MCF-7 breast tumor. One day prior to this procedure, a 1.7 mg estradiol pellet was implanted subcutaneously in the scapular region. The tumor cells were allowed to form solid tumor nodules for 4 to 6 weeks prior to injection of the test compounds.

[2] = In vivo localization (biodistribution) in athymic female nude mice bearing subcutaneous MCF-7 tumor xenografts; design: species or system athymic female NCR-Nu Mice; settings: mouse, sc, tail vein, subcutaneous MCF-7, mean, n = 5; for tissue uptake: 10-12 hours
Procedure: as §1, §2

[3] = Percent Injected Dose/Gram, kidney
[4] = Percent Injected Dose/Gram, liver
[5] = Percent Injected Dose/Gram, muscle
[6] = Percent Injected Dose/Gram, spleen
[7] = Percent Injected Dose/Gram, tumor
[8] = mcf-7 tumor, Tumor, read-out: Percent Injected Dose/Gram, tumor
[9] = Blood, read-out: Percent Injected Dose/Gram, blood
[10] = Fat, read-out: Percent Injected Dose/Gram, fat
[11] = Kidney, read-out: Percent Injected Dose/Gram, kidney
[12] = Liver, read-out: Percent Injected Dose/Gram, liver
[13] = Muscle, read-out: Percent Injected Dose/Gram, muscle
[14] = Spleen, read-out: Percent Injected Dose/Gram, spleen
[15] = uterus, Uteri, read-out: Percent Injected Dose/Gram, uteri

For `CC[C@H]1C[C@@]2(C)[C@@H](CC[C@@]2(O)/C=C\[125I])[C@@H]2CCc3cc(O)ccc3[C@@H]12` [Compound 5, 11β-ethyl-17α-(Z)-[^125 I](iodovinyl)estra-3,17β-diol], the tissue uptake ([1]; Blood, tail vein, intraperitoneal MCF-7, mean, n = 5, read-out: Percent Injected Dose/Gram, blood) was 0.61 %ID/g, the tissue uptake at 2 h ([1]; Blood, 2 hours, tail vein, intraperitoneal MCF-7, mean, n = 5, read-out: Percent Injected Dose/Gram, blood) was 2.07 %ID/g and the tissue uptake at 6 h ([1]; Blood, 6 hours, tail vein, intraperitoneal MCF-7, mean, n = 5, read-out: Percent Injected Dose/Gram, blood) was 0.88 %ID/g. For the same compound, the tissue uptake ([1]; Fat, tail vein, intraperitoneal MCF-7, mean, n = 5, read-out: Percent Injected Dose/Gram, fat) was 0.67 %ID/g, the tissue uptake at 2 h ([1]; Fat, 2 hours, tail vein, intraperitoneal MCF-7, mean, n = 5, read-out: Percent Injected Dose/Gram, fat) was 3.1 %ID/g and the tissue uptake at 6 h ([1]; Fat, 6 hours, tail vein, intraperitoneal MCF-7, mean, n = 5, read-out: Percent Injected Dose/Gram, fat) was 1.64 %ID/g. It also gave a tissue uptake at 24 h ([1]; Fat, 24 hours, tail vein, intraperitoneal MCF-7, mean, n = 5, read-out: Percent Injected Dose/Gram, fat) of 0.12 %ID/g, a tissue uptake at 2 h [1, 3] of 2.08 %ID/g and a tissue uptake at 6 h [1, 3] of 0.78 %ID/g. For the same compound, the tissue uptake at 24 h [1, 3] was 0.13 %ID/g, the tissue uptake at 48 h [1, 3] was 0.03 %ID/g and the tissue uptake at 2 h [1, 4] was 8.26 %ID/g. The tissue uptake at 6 h [1, 4] was 4.08 %ID/g, the tissue uptake at 24 h [1, 4] was 1.14 %ID/g and the tissue uptake at 48 h [1, 4] was 0.44 %ID/g. For the same compound, the tissue uptake at 2 h [1, 5] was 0.69 %ID/g, the tissue uptake at 6 h [1, 5] was 0.31 %ID/g and the tissue uptake at 2 h [1, 6] was 1.72 %ID/g. For the same compound, the tissue uptake at 6 h [1, 6] was 0.86 %ID/g, the tissue uptake at 24 h [1, 6] was 0.16 %ID/g and the tissue uptake at 48 h [1, 6] was 0.06 %ID/g. It also gave a tissue uptake at 2 h [1, 7] of 2.33 %ID/g, a tissue uptake at 6 h [1, 7] of 1.6 %ID/g and a tissue uptake at 24 h [1, 7] of 1.07 %ID/g. It also gave a tissue uptake at 48 h [1, 7] of 0.76 %ID/g, a tissue uptake ([1]; Uteri, tail vein, intraperitoneal MCF-7, mean, n = 5, read-out: Percent Injected Dose/Gram, uteri) of 3.95 %ID/g and a tissue uptake at 2 h ([1]; Uteri, 2 hours, tail vein, intraperitoneal MCF-7, mean, n = 5, read-out: Percent Injected Dose/Gram, uteri) of 6.47 %ID/g. For the same compound, the tissue uptake at 6 h ([1]; Uteri, 6 hours, tail vein, intraperitoneal MCF-7, mean, n = 5, read-out: Percent Injected Dose/Gram, uteri) was 4.43 %ID/g, the tissue uptake at 24 h ([1]; Uteri, 24 hours, tail vein, intraperitoneal MCF-7, mean, n = 5, read-out: Percent Injected Dose/Gram, uteri) was 3.35 %ID/g and the tissue uptake at 48 h ([1]; Uteri, 48 hours, tail vein, intraperitoneal MCF-7, mean, n = 5, read-out: Percent Injected Dose/Gram, uteri) was 1.62 %ID/g. For the same compound, the tissue uptake [2, 8] was 0.83 %ID/g, the tissue uptake at 2 h [2, 8] was 1.15 %ID/g and the tissue uptake at 6 h [2, 8] was 1.1 %ID/g. The tissue uptake at 24 h [2, 8] was 0.55 %ID/g, the tissue uptake at 48 h [2, 8] was 0.36 %ID/g and the tissue uptake [2, 9] was 0.37 %ID/g. For the same compound, the tissue uptake at 2 h [2, 9] was 1.11 %ID/g, the tissue uptake at 6 h [2, 9] was 1.06 %ID/g and the tissue uptake at 24 h [2, 9] was 0.09 %ID/g. For the same compound, the tissue uptake at 48 h [2, 9] was 0.03 %ID/g, the tissue uptake [2, 10] was 0.82 %ID/g and the tissue uptake at 2 h [2, 10] was 2.18 %ID/g. It also gave a tissue uptake at 6 h [2, 10] of 1.72 %ID/g, a tissue uptake at 24 h [2, 10] of 0.14 %ID/g and a tissue uptake [2, 11] of 0.45 %ID/g. For the same compound, the tissue uptake at 2 h [2, 11] was 1.24 %ID/g, the tissue uptake at 6 h [2, 11] was 1.01 %ID/g and the tissue uptake at 24 h [2, 11] was 0.1 %ID/g. The tissue uptake at 48 h [2, 11] was 0.02 %ID/g, the tissue uptake [2, 12] was 2.39 %ID/g and the tissue uptake at 2 h [2, 12] was 5.61 %ID/g. It also gave a tissue uptake at 6 h [2, 12] of 5.34 %ID/g, a tissue uptake at 24 h [2, 12] of 0.87 %ID/g and a tissue uptake at 48 h [2, 12] of 0.36 %ID/g. For the same compound, the tissue uptake [2, 13] was 0.09 %ID/g, the tissue uptake at 2 h [2, 13] was 0.56 %ID/g and the tissue uptake at 6 h [2, 13] was 0.33 %ID/g. The tissue uptake [2, 14] was 0.54 %ID/g, the tissue uptake at 2 h [2, 14] was 1.26 %ID/g and the tissue uptake at 6 h [2, 14] was 0.97 %ID/g. For the same compound, the tissue uptake at 24 h [2, 14] was 0.18 %ID/g, the tissue uptake at 48 h [2, 14] was 0.06 %ID/g and the tissue uptake [2, 15] was 3.66 %ID/g. For the same compound, the tissue uptake at 2 h [2, 15] was 4.66 %ID/g, the tissue uptake at 6 h [2, 15] was 4.4 %ID/g and the tissue uptake at 24 h [2, 15] was 1.95 %ID/g. It also gave a tissue uptake at 48 h [2, 15] of 1.26 %ID/g.
